Key:
recombinant human MALT1 = biological target: T1, recombinant human MALT1 (Homo sapiens, UniProt Q9UDY8); assay: Measurement of MALT1 enzyme inhibitory activity; assay type: biochemical; conditions: read-out: MALT1 enzyme inhibition rate (%) at 3 μM compound
T1 construct: to form a human MALT1 (340-789aa) dimer; His tag (from pET28a, N-terminal) (N); yeast GCN4 leucine zipper (251-281aa), fusion partner for dimerisation (N); translates to GSGSGS), between GCN4 zipper and MALT1 (N); His tag (C-terminal) (C); made in house; host or cells: E. coli BL21 (DE3)
Procedure: On the human MALT1 gene, PCR was carried out using GC-030-[…] (pENTR221/MALT1, GeneCopoeia) as a template with primers having BamH I restriction enzyme at the N-terminal and Not I restriction enzyme at the C-terminal to form a human MALT1 (340-789aa) dimer. […] Both of the obtained fragments were treated with the restriction enzymes, and inserted between Nde I and Not I of a pET28a (Novagen) vector to yield a recombinant human MALT1 protein expression vector pET28a/His-LZ-hMALT1v1 (340-789)-His. The recombinant human MALT1 protein was prepared by transforming the expression plasmid prepared as above with ECOS Competent E. coli BL21 (DE3) (Nippon Gene Co., Ltd.). Escherichia coli obtained by transformation was inoculated into 300 mL of LB medium (1% tryptone, 0.5% yeast extract, 0.5% sodium chloride, 0.01% ampicillin) and cultured at 30° C. for 16 hours. […] Furthermore, culturing was carried out for 16 hours to induce expression of human MALT1 protein. After completion of the culture, the culture solution was centrifuged at 5,000 rpm for 10 minutes. […] This crushed liquid was centrifuged (15,300×G, 30 min, TOMY MX-301), and the obtained supernatant was passed through and adsorbed to a Ni-NTA Superflow (QIAGEN) column previously equilibrated with 50 mM Tris-HCl pH 8.0, 300 mM NaCl, 5 mM DTT and 10% glycerol, followed by elution in a buffer containing 50 mM Tris-HCl pH 8.0, 300 mM NaCl, 5 mM DTT, 10% glycerol and 250 mM imidazole. […] The prepared protein was stored at -30° C., and the protein concentration was measured with a BCA Protein Assay Kit (PIERCE) using BSA as a standard. […] Subsequently, 2 μL of a purified recombinant human MALT1 enzyme solution was added, followed by incubation for 60 minutes at room temperature. To the mixture were added 2 μL of a substrate solution (75 μM Ac-LRSR-AFC (SM Biochemicals), 20 mM HEPES (Dojin Laboratories), 10 mM KCl (Wako Pure Chemical Industries, Ltd.), 1.5 mM MgCl2 (Sigma-Aldrich), 1 mM EDTA (pH 8.0) (Nippon Gene Co., Ltd.), 0.01% Triton X-100 (Sigma-Aldrich) and 1 mM DTT (Wako Pure Chemical Industries, Ltd.), followed by incubation for 60 minutes at room temperature. The fluorescence values of excitation 400 nm and emission 485 nm immediately after substrate addition and after enzymatic reaction were measured with a plate reader Envision (PerkinElmer), and the fluorescence values increased by enzymatic reaction were used for calculation of the inhibition rate (%).

OCI-Ly3 cells = assay: Measurement of growth inhibitory activity using OCI-Ly3 cells; assay type: cell-based; conditions: Homo sapiens, 144 h, 3 μm compound, 6 days, read-out: Cell growth inhibition rate (%) at 3 μm compound
Procedure: OCI-Ly3 cells were seeded in a cell culture medium IMDM (Fujifilm Wako Pure Chemical Corporation) containing 20% FCS (fetal calf serum, Thermo Fisher Scientific) and monothioglycerol (Fujifilm Wako Pure Chemical Corporation) so as to be at 1.25×10^3 cells/well on a 96-well plate. Cell Titer-Glo solution (Promega) was added to cells to which the test compound had not been added, followed by stirring at room temperature for 15 minutes. Subsequently, the luminescence value was measured with Envision (PerkinElmer) on the day of seeding. Cells to which the test compound dissolved in dimethyl sulfoxide (Fujifilm Wako Pure Chemical Corporation) had been added were allowed to stand in a CO2 incubator (37° C.) for 6 days. Subsequently, the luminescence value was measured in the same manner. The inhibition rate (%) of the test compound on OCI-Ly3 cell growth was calculated by the following formula. Cell growth inhibition rate (%)=(1−(Luminescent value on day 6 of test compound treatment−Luminescent value before test compound treatment)/(Luminescent value on day 6 without compound addition−Luminescent value before compound treatment))×100

[1] = test system: Human diffuse large-cell B-cell lymphoma cells OCI-Ly3; assay: Antitumor effect on OCI-Ly3 cell-bearing cancer model; assay type: in vivo; conditions: average tumor volume increase ratio; 10 mg/kg orally twice daily for 3 weeks; NOG female mice, OCI-Ly3 subcutaneous
Procedure: Human diffuse large-cell B-cell lymphoma cells OCI-Ly3 (DSMZ, German Collection of Microorganisms and Cell Cultures) were suspended in a Matrigel (BD Biosciences):HBSS (Thermo Fisher Scientific)=1:1 solution, and 1×10^7 cells were transplanted subcutaneously into the abdomen of NOG female mice (CLEA Japan, Inc.). The tumor diameter of the engrafted tumor was measured, and the tumor volume was calculated by the following formula. Tumor volume=major axis×minor axis×minor axis×(½)
Individuals with the engrafted tumor having a tumor volume of about 120 mm^3 were selected, and 6 animals per group were used in the experiment. A suspension of the test compound in 0.5% methylcellulose solution (Fujifilm Wako Pure Chemical Corporation) was orally administered at a dose of 10 mg/kg (10 mL/kg) twice daily for 3 weeks. The tumor volume was measured on the day before the start of administration and every 3 to 4 days over time, and the tumor diameter was finally measured the day after the end of administration for 21 days to calculate the tumor volume. The tumor growth of the test compound-administered group compared with the control-administered group was calculated by the following formula as an average tumor volume increase ratio T/C. T/C=((Tumor volume after the end of administration for the test compound-administered group−Tumor volume of the day before the start of administration for the test compound-administered group)/(Tumor volume after the end of administration for the control-administered group−Tumor volume of the day before the start of administration for the control-administered group))×100

T1 sequence (Q9UDY8 340-789): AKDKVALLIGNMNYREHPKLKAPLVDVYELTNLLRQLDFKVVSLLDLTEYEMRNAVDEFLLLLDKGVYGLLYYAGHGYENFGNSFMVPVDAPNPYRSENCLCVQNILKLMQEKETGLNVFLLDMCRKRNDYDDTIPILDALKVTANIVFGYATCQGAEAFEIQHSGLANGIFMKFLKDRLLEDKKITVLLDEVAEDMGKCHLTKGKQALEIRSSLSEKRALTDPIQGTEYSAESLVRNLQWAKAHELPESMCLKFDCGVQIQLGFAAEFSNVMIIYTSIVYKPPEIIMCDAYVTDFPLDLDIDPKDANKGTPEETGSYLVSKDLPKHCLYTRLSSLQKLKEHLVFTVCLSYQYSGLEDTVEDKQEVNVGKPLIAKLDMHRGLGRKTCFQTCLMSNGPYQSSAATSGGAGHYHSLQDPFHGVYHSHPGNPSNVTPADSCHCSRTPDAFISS
T1 sequence (P03069 251-281 partner limits assumed): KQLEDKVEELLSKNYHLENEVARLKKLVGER

| inhibition at 3 µM (recombinant human MALT1) [%] | SMILES | inhibition at 3 µM (OCI-Ly3 cells) [%] | T/C (%) [1] [%] |
| --- | --- | --- | --- |
| 104 | CO[C@@H](C)c1c(NC(=O)Nc2cnc(OC(F)F)c(Cl)c2)cnn2cc(C)nc12 [Example 1, (S)—N-(5-Chloro-6-(difluoromethoxy)pyridin-3-yl)-N′-(8-(1-methoxyethyl)-2-methylimidazo[1,2-b]pyridazin-7-yl)urea] | 96 | 13.4 |
| 99 | CO[C@@H](C)c1c(NC(=O)Nc2cnc(-n3nccn3)c(C(F)(F)F)c2)cnc2ccc(Cl)nc12 [Example 2, (S)—N-(6-Chloro-4-(1-methoxyethyl)-1,5-naphthyridin-3-yl)-N′-(6-(2H-1,2,3-triazol-2-yl)-5-(trifluoromethyl)pyridin-3-yl)urea] | 97 | 2.0 |
| 101 | CO[C@@H](C)c1c(NC(=O)Nc2cnc(-n3nccn3)c(C(F)(F)F)c2)cnc2ccc(C)nc12 [Example 3, (S)—N-(4-(1-Methoxyethyl)-6-methyl-1,5-naphthyridin-3-yl)-N′-(6-(2H-1,2,3-triazol-2-yl)-5-(trifluoromethyl)pyridin-3-yl)urea] | 99 | 38.7 |
| 111 | CO[C@@H](C)c1c(NC(=O)Nc2cnc(-n3nccn3)c(Cl)c2)cnn2cc(C)nc12 [Example 4, (S)—N-(5-Chloro-6-(2H-1,2,3-triazol-2-yl)pyridin-3-yl)-N′-(8-(1-methoxyethyl)-2-methylimidazo[1,2-b]pyridazin-7-yl)urea] | 97 | 43.3 |

Source: patent US11230545B2, “Heterocyclic compound” (Takeda Pharmaceutical Company Limited, priority 2018, dated 2022)
